Results on 33 compounds are retold here after patent publication US11154544B2, “Amide derivatives as Nav1.7 and Nav1.8 blockers” (RaQualia Pharma Inc., priority 2017, dated 2021).

Molecules are shown by their SMILES. Where “and” joins values, the source holds several entries; their conditions need not be identical. Equal values may be shown once. Some results are limits rather than exact numbers.

The IC50 is the concentration that gives 50% inhibition.

Chain of Nav1.7 (Q15858 whole entry): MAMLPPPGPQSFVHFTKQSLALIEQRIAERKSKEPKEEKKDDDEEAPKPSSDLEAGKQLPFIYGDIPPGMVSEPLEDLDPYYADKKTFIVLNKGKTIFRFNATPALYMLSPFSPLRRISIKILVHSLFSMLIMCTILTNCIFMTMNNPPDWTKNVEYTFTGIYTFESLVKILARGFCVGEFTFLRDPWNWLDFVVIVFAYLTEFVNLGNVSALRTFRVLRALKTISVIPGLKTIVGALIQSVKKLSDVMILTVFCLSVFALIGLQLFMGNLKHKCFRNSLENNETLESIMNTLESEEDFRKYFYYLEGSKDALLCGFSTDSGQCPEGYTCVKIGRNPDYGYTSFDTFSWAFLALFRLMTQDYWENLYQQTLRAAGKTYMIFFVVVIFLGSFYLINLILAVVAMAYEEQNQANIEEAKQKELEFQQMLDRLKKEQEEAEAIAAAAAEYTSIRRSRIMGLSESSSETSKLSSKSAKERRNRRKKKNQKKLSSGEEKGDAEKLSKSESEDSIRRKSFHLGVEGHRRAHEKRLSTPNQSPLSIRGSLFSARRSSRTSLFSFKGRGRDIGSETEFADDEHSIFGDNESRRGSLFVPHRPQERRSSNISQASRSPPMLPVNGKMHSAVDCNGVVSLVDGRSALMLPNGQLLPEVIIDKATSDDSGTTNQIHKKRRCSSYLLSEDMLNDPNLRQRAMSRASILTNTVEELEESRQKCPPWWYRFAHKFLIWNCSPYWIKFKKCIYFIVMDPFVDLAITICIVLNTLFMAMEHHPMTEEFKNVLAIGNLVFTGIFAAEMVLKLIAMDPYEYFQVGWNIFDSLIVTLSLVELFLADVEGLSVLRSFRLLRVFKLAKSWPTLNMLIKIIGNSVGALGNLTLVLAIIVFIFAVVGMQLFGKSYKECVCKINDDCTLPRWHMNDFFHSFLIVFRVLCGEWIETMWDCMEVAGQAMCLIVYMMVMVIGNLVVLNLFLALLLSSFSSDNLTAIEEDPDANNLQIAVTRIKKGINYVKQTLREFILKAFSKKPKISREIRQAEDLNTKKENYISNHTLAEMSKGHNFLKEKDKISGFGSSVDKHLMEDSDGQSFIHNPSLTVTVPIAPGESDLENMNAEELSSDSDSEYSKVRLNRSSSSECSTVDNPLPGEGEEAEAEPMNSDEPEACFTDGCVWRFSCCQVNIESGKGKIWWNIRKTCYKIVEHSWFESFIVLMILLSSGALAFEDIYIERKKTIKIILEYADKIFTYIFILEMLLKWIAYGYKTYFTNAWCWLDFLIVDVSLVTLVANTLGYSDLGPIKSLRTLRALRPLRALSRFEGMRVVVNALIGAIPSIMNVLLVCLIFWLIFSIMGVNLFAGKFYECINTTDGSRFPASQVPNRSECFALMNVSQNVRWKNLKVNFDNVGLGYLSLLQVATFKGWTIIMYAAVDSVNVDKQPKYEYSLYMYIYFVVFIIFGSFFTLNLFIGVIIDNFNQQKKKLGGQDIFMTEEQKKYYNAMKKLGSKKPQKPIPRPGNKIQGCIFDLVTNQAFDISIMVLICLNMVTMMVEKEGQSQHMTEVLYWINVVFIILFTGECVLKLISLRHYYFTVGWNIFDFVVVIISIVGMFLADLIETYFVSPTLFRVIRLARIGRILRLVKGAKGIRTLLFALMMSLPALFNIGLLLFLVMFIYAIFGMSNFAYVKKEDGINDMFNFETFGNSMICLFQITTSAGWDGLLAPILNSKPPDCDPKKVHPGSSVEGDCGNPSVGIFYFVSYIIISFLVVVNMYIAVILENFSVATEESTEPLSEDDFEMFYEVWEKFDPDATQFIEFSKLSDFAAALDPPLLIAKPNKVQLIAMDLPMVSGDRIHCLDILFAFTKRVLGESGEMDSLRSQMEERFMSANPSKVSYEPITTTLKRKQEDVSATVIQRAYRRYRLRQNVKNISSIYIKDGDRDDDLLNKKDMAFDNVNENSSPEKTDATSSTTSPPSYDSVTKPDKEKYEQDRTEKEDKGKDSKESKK

The target in the first experiment is human Nav1.8 channels (Homo sapiens (Human), UniProt Q9Y5Y9). Put plainly: FRET assay (FDSS). Format: cell-based.
Chain of human Nav1.8 channels (Q9Y5Y9 whole entry): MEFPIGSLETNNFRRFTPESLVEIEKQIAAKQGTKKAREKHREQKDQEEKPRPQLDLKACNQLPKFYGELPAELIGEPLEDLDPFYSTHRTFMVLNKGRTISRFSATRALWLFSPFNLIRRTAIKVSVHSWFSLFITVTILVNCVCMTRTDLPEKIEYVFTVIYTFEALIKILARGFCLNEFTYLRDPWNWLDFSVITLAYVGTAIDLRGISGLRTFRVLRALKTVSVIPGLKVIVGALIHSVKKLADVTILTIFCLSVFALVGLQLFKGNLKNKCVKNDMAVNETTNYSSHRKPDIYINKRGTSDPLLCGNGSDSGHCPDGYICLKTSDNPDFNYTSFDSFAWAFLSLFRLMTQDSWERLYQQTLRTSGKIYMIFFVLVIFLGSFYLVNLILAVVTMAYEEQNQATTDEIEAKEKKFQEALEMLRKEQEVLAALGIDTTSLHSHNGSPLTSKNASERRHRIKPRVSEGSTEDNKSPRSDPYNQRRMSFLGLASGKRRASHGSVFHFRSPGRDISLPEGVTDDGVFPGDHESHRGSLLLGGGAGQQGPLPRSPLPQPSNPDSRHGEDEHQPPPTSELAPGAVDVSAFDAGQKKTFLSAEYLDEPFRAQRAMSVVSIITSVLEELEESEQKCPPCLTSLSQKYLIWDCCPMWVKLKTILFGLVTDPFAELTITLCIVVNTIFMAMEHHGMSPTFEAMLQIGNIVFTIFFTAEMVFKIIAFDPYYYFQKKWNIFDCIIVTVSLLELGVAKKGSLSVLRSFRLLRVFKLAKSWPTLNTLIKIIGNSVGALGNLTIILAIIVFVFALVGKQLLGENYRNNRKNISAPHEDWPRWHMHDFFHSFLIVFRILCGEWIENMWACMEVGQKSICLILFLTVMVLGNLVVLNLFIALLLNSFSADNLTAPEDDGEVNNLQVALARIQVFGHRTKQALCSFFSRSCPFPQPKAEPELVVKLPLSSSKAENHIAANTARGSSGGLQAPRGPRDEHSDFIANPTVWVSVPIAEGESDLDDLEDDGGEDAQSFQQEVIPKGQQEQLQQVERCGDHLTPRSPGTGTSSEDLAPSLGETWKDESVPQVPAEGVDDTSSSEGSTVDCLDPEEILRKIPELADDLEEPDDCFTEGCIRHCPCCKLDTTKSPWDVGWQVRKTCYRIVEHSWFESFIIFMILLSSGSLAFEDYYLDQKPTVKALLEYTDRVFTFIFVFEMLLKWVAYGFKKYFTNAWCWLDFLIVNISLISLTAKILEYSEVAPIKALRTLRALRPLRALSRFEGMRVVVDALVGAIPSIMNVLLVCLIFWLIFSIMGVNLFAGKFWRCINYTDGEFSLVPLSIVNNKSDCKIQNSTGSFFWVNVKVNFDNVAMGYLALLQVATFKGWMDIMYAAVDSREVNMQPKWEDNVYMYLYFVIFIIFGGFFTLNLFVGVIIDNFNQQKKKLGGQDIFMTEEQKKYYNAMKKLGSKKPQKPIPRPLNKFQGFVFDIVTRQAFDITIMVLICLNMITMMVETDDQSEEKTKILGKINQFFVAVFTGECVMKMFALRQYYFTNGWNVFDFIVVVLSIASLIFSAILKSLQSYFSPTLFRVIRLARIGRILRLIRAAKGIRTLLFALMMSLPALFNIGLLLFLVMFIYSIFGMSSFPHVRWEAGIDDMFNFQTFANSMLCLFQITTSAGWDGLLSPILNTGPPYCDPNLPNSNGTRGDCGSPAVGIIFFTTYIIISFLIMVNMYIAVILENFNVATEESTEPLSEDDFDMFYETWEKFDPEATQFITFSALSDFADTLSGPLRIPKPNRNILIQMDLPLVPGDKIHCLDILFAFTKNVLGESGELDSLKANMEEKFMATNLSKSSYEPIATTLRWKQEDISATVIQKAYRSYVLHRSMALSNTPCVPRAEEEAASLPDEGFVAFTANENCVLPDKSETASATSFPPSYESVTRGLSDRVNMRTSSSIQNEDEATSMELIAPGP
Conditions: not given
Here is the method: This screen is used to determine the effects of compounds on human Nav1.8, and human Nav1.5 channels, utilizing the cell imaging technology by Hamamatsu Photonics's Functional Drug Screening System (FDSS). The changes of membrane potential are monitored with fluorescent membrane potential dye pair, DiSBAC2(3) and CC2-DMPE, using FRET technology.
HEK293 cells expressing human Nav1.8 channels or human Nav1.5 channels are grown in T225 flasks, in a 5% CO2 humidified incubator to about 80% confluence. Media composition of HEK293 cells expressing human Nav1.8 channels consists of Dulbecco's Modified Eagle Medium (high glucose), 10% fetal calf serum (FCS), 100 units/mL Penicillin, 100 microgram/mL Streptomycin, 200 microgram/mL Zeocin and 500 microgram/mL Geneticine. HEK293 cells expressing human Nav1.5 channels are maintained in Dulbecco's Modified Eagle Medium (high glucose) supplemented with 10% fetal calf serum (FCS), 100 units/mL Penicillin, 100 microgram/mL Streptomycin and 500 microgram/mL Geneticine.
Seed each cell lines (1.5×10^4 cells/well) into 384-well plates prior to experimentation.
Incubate at 37° C. in 5% CO2 for 24 hours.
Wash each well with buffer #1 (140 mM NaCl, 4.5 mM KCl, 10 mM D-Glucose, 2 mM CaCl2, 1 mM MgCl2, 10 mM HEPES, pH 7.4 adjusted with. NaOH) twice using plate washer.
Add 1st loading solution containing 7.5 microM CC2-DMPE and 0.06% Pluronic F-127 in buffer #1.
Incubate the plate at rt in dark for 0.5 hours.
Wash each well with buffer #2 (160 mM Choline, 10 mM D-Glucose, 0.1 mM CaCl2, 1 mM MgCl2, 1.0 mM HEPES, pH 7.4 adjusted with KOH) twice using plate washer.
Add 2nd loading solution containing 75 microM DiSBAC2(3), 2.5 mM Xylene Fast Yellow, 10 microM Deltamethrin or 100 microM veratridine and 0.02% Pluronic F-127 in buffer #2.
Add compound solutions into the assay plate and leave the plate for 30 minutes under the dark at rt.
Monitor the fluorescent membrane potentials before and after the addition of buffer #2 by FDSS.
The data is analyzed and reported as normalized ratios of intensities measured in the 465 nm and 575 nm channels. The process of calculating these ratios is performed as follows: FR=(FI465Max/FI575Min)−(FI465B/FI575B) [Math.2]
“FI465B”=the mean of fluorescence intensity as baseline (before Na^+ ligand addition) at 465 nm
“FI575B”=the mean of fluorescence intensity as baseline (before Na^+ ligand addition) at 575 nm
“FI465Max”=maximum fluorescence intensity at 465 nm after Na^+ stimulation
“FI575Min”=minimum fluorescence intensity at 575 nm after Na^+ stimulation
This analysis is performed using a computerized specific program designed for FDSS generated data. Fluorescence ratio values are plotted using XLfit to determine an IC50 value for each compound.
`CC(C)C(=O)Nc1cc(C(=O)NCCOc2ncc(C(F)(F)F)cc2Cl)ccn1` [Example 13]: the “activity against Nav1.8” value is “good activity”.

Consider `Cc1cc(C(=O)NCCOc2ncc(C(F)(F)F)cc2Cl)cc(NC(=O)C(C)C)n1` [Example 35], for which the “activity against Nav1.8” value is “good activity”.

Another experiment addresses Nav1.7 (Homo sapiens (Human), UniProt Q15858). The experiment is described as follows: EFS-FRET assay. Format: cell-based. The conditions noted are these: EFS-FRET, CHO cells expressing human Nav1.7; read-out: IC50 against Nav1.7. As for the experimental part: This screen is used to determine the effects of compounds on human Nav1.7 channels, utilizing electrical field stimulation (EFS) system in 96-well plate format on FDSS (Hamamatsu Photonics) platform. The change of membrane potential is monitored with FRET dye pair, DiSBAC2(3) and PTS 18.
CHO (Chinese hamster ovary) cells expressing human Nav1.7 channels are grown in T225 flasks, in a 5% CO2 humidified incubator to about 80% confluence. Media composition consists of HAM/F^.12 with Glutamax I, 10% FCS, 100 units/mL penicillin and 100 microgram/mL hygromycin.
Seed each cell lines (1×10^5 cells/well) into 96-well plates prior to experimentation.
Incubate at 37° C. in 5% CO2, for 24 hours.
Wash each well with assay buffer (140 mM NaCl, […], 10 mM D-Glucose, 2 mM CaCl2, 1 mM MgCl2, 10 mM HEPES, pH 7.4 adjusted with NaOH) twice.
Add 1st loading solution containing 10 microM PTS18 and 0.06% Pluronic F-127 in assay buffer.
Incubate the plate at rt in dark for 1 hour. • Remove 1st loading solution and add 2nd loading solution containing 12.5 microM DiSBAC2(3), 1.25 mM Xylene Fast Yellow and 0.0075% Pluronic F-127 in assay buffer. • Place the plate under the dark at rt for 25 minutes. • Add compound solutions into the assay plate. • Set the assay plate in FDSS and place an EFS device on the plate. • Measure EFS-induced fluorescent response by FDSS.
The data are analyzed and reported as normalized ratios of intensities measured at […]. The process of calculating these ratios is performed as follows:
This analysis is performed using a computerized specific program designed for
FDSS generated data. Fluorescence ratio values are plotted using XLfit to determine an IC50 value for each, compound.
As for `CC(C)C(=O)Nc1cc(C(=O)NCCOc2ncc(C(F)(F)F)cc2Cl)ccn1` [Example 13], the IC50 is 370 nM and < 500 nM.

With `Cc1cc(C(=O)NCCOc2ncc(C(F)(F)F)cc2Cl)cc(NC(=O)C(C)C)n1` [Example 35], the IC50 is 190 nM and < 500 nM.

On to `CCC(=O)Nc1cc(C(=O)NCCOc2ccc(OC(F)(F)F)cc2Cl)ccn1` [Example 114], for which the IC50 is below 500 nM.

For the compound `Cc1cc(C(=O)NCCOc2ccc(OC(F)(F)F)cc2Cl)cc(NC(=O)C2CC2)n1` [Example 115], the 50% inhibitory concentration (IC50) was below 500 nM.

As for `CC(=O)Nc1cc(C(=O)NCCOc2ccc(OC(F)(F)F)cc2Cl)cc(C)n1` [Example 116], the IC50 is below 500 nM.

Take `O=C(NCCOc1ccc(OC(F)(F)F)cc1Cl)c1ccnc(NC(=O)C2CC2)c1` [Example 117]: the concentration for half-maximal inhibition (IC50) is below 500 nM.

Take `CCC(=O)Nc1cc(C(=O)NCCCNc2ncc(C(F)(F)F)cc2Cl)ccn1` [Example 119]: the IC50 was below 500 nM.

`CC(C)C(=O)Nc1cc(C(=O)NCCCOc2ncc(C(F)(F)F)cc2Cl)ccn1` [Example 123]: the half-inhibitory concentration (IC50) was below 500 nM.

With `COc1cc(C(F)(F)F)ccc1OCCNC(=O)c1ccnc(NC(C)=O)c1` [Example 126], the IC50 was below 500 nM.

As to `CCC(=O)Nc1cc(C(=O)NCCOc2ccc(C(F)(F)F)cc2OC)ccn1` [Example 127], the IC50 is below 500 nM.

Consider `COc1cc(C(F)(F)F)ccc1OCCNC(=O)c1cc(C)nc(NC(C)=O)c1` [Example 128], for which the half-inhibitory concentration (IC50) was below 500 nM.

On to `CCC(=O)Nc1cc(C(=O)NCCOc2ccc(C(F)(F)F)cc2OC)cc(C)n1` [Example 129], for which the IC50 is below 500 nM.

On to `COc1cc(C(F)(F)F)ccc1OCCNC(=O)c1ccnc(NC(=O)C2CC2)c1` [Example 130], for which the IC50 is below 500 nM.

For the compound `COc1cc(C(F)(F)F)ccc1OCCNC(=O)c1ccnc(NC(=O)C(C)C)c1` [Example 131], the concentration for half-maximal inhibition (IC50) is below 500 nM.

Turning to `COc1cc(C(F)(F)F)ccc1OCCNC(=O)c1cc(C)nc(NC(=O)C2CC2)c1` [Example 132], the concentration for half-maximal inhibition (IC50) was below 500 nM.

As to `COc1cc(C(F)(F)F)ccc1OCCNC(=O)c1cc(C)nc(NC(=O)C(C)C)c1` [Example 133], the IC50 was below 500 nM.

In the case of `COc1cc(C(F)(F)F)ccc1OCCNC(=O)c1ccnc(NC(=O)C2CC2)n1` [Example 134], the IC50 was below 500 nM.

As to `CC(=O)Nc1cc(C(=O)NCCOc2ccc(C(F)(F)F)cc2C)ccn1` [Example 138], the half-maximal inhibitory concentration (IC50) was below 500 nM.

For the compound `CCC(=O)Nc1cc(C(=O)NCCOc2ccc(C(F)(F)F)cc2C)ccn1` [Example 139], the IC50 was below 500 nM.

Take `CC(=O)Nc1cc(C(=O)NCCOc2ccc(C(F)(F)F)cc2C)cc(C)n1` [Example 140]: the IC50 is below 500 nM.

`CCC(=O)Nc1cc(C(=O)NCCOc2ccc(C(F)(F)F)cc2C)cc(C)n1` [Example 141]: the IC50 is below 500 nM.

For `Cc1cc(C(F)(F)F)ccc1OCCNC(=O)c1ccnc(NC(=O)C2CC2)c1` [Example 142], the IC50 is below 500 nM.

On to `Cc1cc(C(F)(F)F)ccc1OCCNC(=O)c1ccnc(NC(=O)C(C)C)c1` [Example 143], for which the half-maximal inhibitory concentration (IC50) was below 500 nM.

In the case of `Cc1cc(C(=O)NCCOc2ccc(C(F)(F)F)cc2C)cc(NC(=O)C(C)C)n1` [Example 145], the half-inhibitory concentration (IC50) is below 500 nM.

On to `Cc1cc(C(F)(F)F)ccc1OCCNC(=O)c1ccnc(NC(=O)C2CC2)n1` [Example 146], for which the IC50 is below 500 nM.

On to `CCC(=O)Nc1cc(C(=O)NCCOc2ccc(OC(F)(F)F)c(F)c2)ccn1` [Example 148], for which the IC50 was below 500 nM.

In the case of `CC(C)C(=O)Nc1cc(C(=O)NCCOc2ccc(OC(F)(F)F)c(F)c2)ccn1` [Example 149], the IC50 was below 500 nM.

Consider `O=C(NCCOc1ccc(OC(F)(F)F)c(F)c1)c1ccnc(NC(=O)C2CC2)n1` [Example 150], for which the IC50 is below 500 nM.

`O=C(NCCOc1ccc(OC(F)(F)F)c(F)c1)c1ccnc(NC(=O)C2CC2)c1` [Example 151]: the 50% inhibitory concentration (IC50) is below 500 nM.

In the case of `CC(=O)Nc1cc(C(=O)NCCOc2ccc(OC(F)(F)F)c(F)c2)cc(C)n1` [Example 152], the IC50 was below 500 nM.

On to `CC(=O)Nc1cc(C(=O)NCCOc2ccc(OC(F)(F)F)c(F)c2)ccn1` [Example 154], for which the half-maximal inhibitory concentration (IC50) was below 500 nM.

For the compound `O=C(NCCOc1ncc(C(F)(F)F)cc1Cl)c1ncccc1Cl` [No. 1-3, reference compound], the IC50 was above 3000 nM.

`O=C(NCCOc1ncc(C(F)(F)F)cc1Cl)c1cccnc1C(F)(F)F` [No. 1-63, reference compound]: the IC50 is above 3000 nM.

Still in this experiment, the particulars now being: Table 1; read-out: Nav1.7 activity (IC50).
On to `CC(C)C(=O)Nc1cc(C(=O)NCCOc2ncc(C(F)(F)F)cc2Cl)ccn1` [Example 13], for which the half-maximal inhibitory concentration (IC50) was 370 nM.

Consider `Cc1cc(C(=O)NCCOc2ncc(C(F)(F)F)cc2Cl)cc(NC(=O)C(C)C)n1` [Example 35], for which the IC50 was 190 nM.

On to `O=C(NCCOc1ncc(C(F)(F)F)cc1Cl)c1ncccc1Cl` [No. 1-3, reference compound], for which the IC50 was above 3000 nM.

As for `O=C(NCCOc1ncc(C(F)(F)F)cc1Cl)c1cccnc1C(F)(F)F` [No. 1-63, reference compound], the IC50 was above 3000 nM.
